Experimental data reported in ChEMBL document CHEMBL5338718, “Design and exploration of gut-restricted bifunctional molecule with TGR5 agonistic and DPP4 inhibitory effects for treating ulcerative colitis” (Eur J Med Chem, 2022).
Activity calls are given as the source filed them. No cut-off for these calls is given here.

How the values were obtained:
[1] = biological target: T1, G-protein coupled bile acid receptor 1 (Homo sapiens, UniProt Q8TDU6); experiment: Agonist activity at human TGR5 expressed in human HEK293 cells co-expressing CRE-driven luciferase reporter gene assessed as luciferase activity incubated for 5.5 hrs by Steady-Glo based luciferase assay; assay type: functional, cell-based
T1 sequence (Q8TDU6 whole entry): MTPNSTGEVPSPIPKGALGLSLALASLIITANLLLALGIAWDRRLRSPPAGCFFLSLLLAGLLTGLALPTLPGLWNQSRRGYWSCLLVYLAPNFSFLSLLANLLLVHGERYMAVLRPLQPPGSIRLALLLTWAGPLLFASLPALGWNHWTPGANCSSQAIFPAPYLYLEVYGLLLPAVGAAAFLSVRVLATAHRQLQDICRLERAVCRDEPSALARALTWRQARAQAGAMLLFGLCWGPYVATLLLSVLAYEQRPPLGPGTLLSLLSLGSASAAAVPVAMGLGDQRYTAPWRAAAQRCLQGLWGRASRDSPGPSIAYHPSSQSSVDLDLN

[2] = biological target: T2, G-protein coupled bile acid receptor 1 (Mus musculus, UniProt Q80SS6); experiment: Agonist activity at mouse TGR5 expressed in human HEK293 cells co-expressing CRE-driven luciferase reporter gene assessed as luciferase activity incubated for 5.5 hrs by Steady-Glo based luciferase assay; assay type: functional, cell-based
T2 sequence (Q80SS6 whole entry): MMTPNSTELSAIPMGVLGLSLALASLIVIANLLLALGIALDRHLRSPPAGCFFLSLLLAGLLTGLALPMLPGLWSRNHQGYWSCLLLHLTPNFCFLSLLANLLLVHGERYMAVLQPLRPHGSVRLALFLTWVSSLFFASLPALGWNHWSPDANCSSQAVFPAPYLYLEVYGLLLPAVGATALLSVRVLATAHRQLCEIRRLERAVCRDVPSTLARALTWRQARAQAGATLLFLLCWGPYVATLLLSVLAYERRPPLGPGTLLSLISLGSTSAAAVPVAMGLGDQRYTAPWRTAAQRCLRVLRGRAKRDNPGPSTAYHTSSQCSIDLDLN

Dipeptidyl peptidase 4 = Dipeptidyl peptidase 4 (Mus musculus, UniProt P28843); experiment: Inhibition of mouse serum DPP4 assessed as cleavage of substrate by measuring AMC release using Gly-Pro-AMC as substrate by fluorescence based microplate reader assay; assay type: cell-free
[3] = Water solubility at pH 6.8; assay type: physicochemical
[4] = Water solubility at pH 7.4; assay type: physicochemical
[5] = Apparent permeability across apical to basolateral side in human Caco-2 cells at 20 uM and measured upto 95 mins by LC-MS/MS analysis; assay type: ADME, cell-based
[6] = Apparent permeability across basolateral to apical side in human Caco-2 cells at 20 uM and measured upto 95 mins by LC-MS/MS analysis; assay type: ADME, cell-based
[7] = Cmax in overnight-fasted ICR mouse ileum at 30 mg/kg, po and measured upto 8 hrs by LC-MS/MS analysis; assay type: ADME, organism-based; parameters: dose 30 mg/kg, time < 8 hrs, route po
[8] = Cmax in overnight-fasted ICR mouse plasma at 30 mg/kg, po and measured upto 8 hrs by LC-MS/MS analysis; assay type: ADME, organism-based; parameters: dose 30 mg/kg, time < 8 hrs, route po
[9] = Cmax in overnight-fasted ICR mouse Gall bladder at 30 mg/kg, po and measured upto 8 hrs by LC-MS/MS analysis; assay type: ADME, organism-based; parameters: dose 30 mg/kg, time < 8 hrs, route po
Mus musculus [10] = experiment: In vivo inhibition of DDP4 in ICR mouse assessed as decrease in enzyme activity in serum at 200 mg/kg,po and measured at 2 hrs using Gly-Pro-AMC as substrate by fluorescence based microplate reader assay; assay type: functional, organism-based
Mus musculus [11] = experiment: In vivo inhibition of DDP4 in ICR mouse assessed as decrease in enzyme activity in serum at 200 mg/kg,po and measured at 4 hrs using Gly-Pro-AMC as substrate by fluorescence based microplate reader assay; assay type: functional, organism-based
Mus musculus [12] = experiment: In vivo inhibition of DDP4 in ICR mouse assessed as decrease in enzyme activity in serum at 200 mg/kg,po and measured after 8 hrs using Gly-Pro-AMC as substrate by fluorescence based microplate reader assay; assay type: functional, organism-based
Mus musculus [13] = experiment: In vivo inhibition of DDP4 in ICR mouse assessed as decrease in enzyme activity in ileum at 200 mg/kg,po and measured after 8 hrs using Gly-Pro-AMC as substrate by fluorescence based microplate reader assay; assay type: functional, organism-based
Mus musculus [14] = experiment: In vivo inhibition of DDP4 in ICR mouse assessed as decrease in enzyme activity in ileum at 50 mg/kg,po and measured after 8 hrs using Gly-Pro-AMC as substrate by fluorescence based microplate reader assay; assay type: functional, organism-based
Mus musculus [15] = experiment: In vivo inhibition of DDP4 in ICR mouse assessed as decrease in enzyme activity in ileum at 25 mg/kg,po and measured after 8 hrs using Gly-Pro-AMC as substrate by fluorescence based microplate reader assay; assay type: functional, organism-based
Mus musculus [16] = experiment: In vivo agonist activity at TGR5 in overnight fasted ICR mouse assessed as increase in GLP-1 activity in serum at 100 mg/kg,po preincubated with sitagliptin at 30 mg/kg,po for one hr followed by compound addition and measured after 8 hrs by ELISA; assay type: functional, organism-based
Mus musculus [17] = experiment: Anti-colitis activity against DSS-induced ulcerative colitis BALB/c mouse model assessed as suppression of DSS induced weight loss at 30 mg/kg,po for 10 days; assay type: functional, organism-based; settings: time 10.0 day
Mus musculus [18] = experiment: Anti-colitis activity against DSS-induced ulcerative colitis BALB/c mouse model assessed as suppression of DSS induced diarrhea at 30 mg/kg,po for 10 days; assay type: functional, organism-based; settings: time 10.0 day
Mus musculus [19] = experiment: Anti-colitis activity against DSS-induced ulcerative colitis BALB/c mouse model assessed as suppression of DSS induced fecal occult blood at 30 mg/kg,po for 10 days; assay type: functional, organism-based; settings: time 10.0 day
Mus musculus [20] = experiment: Anti-colitis activity against DSS-induced ulcerative colitis BALB/c mouse model assessed as reduction in body weight loss by measuring DAI score at 30 mg/kg,po and measured after 5 to 10 days; assay type: functional, organism-based; settings: time 5-10 day
Mus musculus [21] = experiment: Anti-colitis activity against DSS-induced ulcerative colitis BALB/c mouse model assessed as reduction in stool softness by measuring DAI score at 30 mg/kg,po and measured after 5 to 10 days; assay type: functional, organism-based; settings: time 5-10 day
Mus musculus [22] = experiment: Anti-colitis activity against DSS-induced ulcerative colitis BALB/c mouse model assessed as reduction in fecal occult blood by measuring DAI score at 30 mg/kg,po and measured after 5 to 10 days; assay type: functional, organism-based; settings: time 5-10 day
Mus musculus [23] = experiment: Anti-colitis activity against DSS-induced ulcerative colitis BALB/c mouse model assessed as recovery of colon length at 30 mg/kg,po for 10 days; assay type: functional, organism-based; settings: time 10.0 day
Mus musculus [24] = experiment: Anti-colitis activity against DSS-induced ulcerative colitis BALB/c mouse model assessed as decrease in inflammatory cell infiltration at 30 mg/kg,po for 10 days by Hematoxylin and eosin staining based microscopy; assay type: functional, organism-based; settings: time 10.0 day
Mus musculus [25] = experiment: Anti-colitis activity against DSS-induced ulcerative colitis BALB/c mouse model assessed as recovery of tissue damage at 30 mg/kg,po for 10 days by Hematoxylin and eosin staining based microscopy; assay type: functional, organism-based; settings: time 10.0 day
Mus musculus [26] = experiment: Anti-colitis activity against DSS-induced ulcerative colitis BALB/c mouse model assessed as decrease in histological score at 30 mg/kg,po for 10 days by Hematoxylin and eosin staining based microscopy; assay type: functional, organism-based; settings: time 10.0 day
Mus musculus [27] = experiment: Induction of gut restriction in overnight fasted ICR mouse assessed as effect on gallbladder-filling by measuring gallbladder volume at 30 to 200 mg/kg, po and measured after 4 hrs by Vernier caliper analysis; assay type: functional, organism-based; settings: dose 30-200 mg/kg
Mus musculus [28] = experiment: Induction of gut restriction in overnight fasted ICR mouse assessed as effect on gallbladder-filling by measuring bile weight at 30 to 200 mg/kg, po and measured after 4 hrs by Vernier caliper analysis; assay type: functional, organism-based; settings: dose 30-200 mg/kg

Dipeptidyl peptidase 4, sequence (P28843 whole entry): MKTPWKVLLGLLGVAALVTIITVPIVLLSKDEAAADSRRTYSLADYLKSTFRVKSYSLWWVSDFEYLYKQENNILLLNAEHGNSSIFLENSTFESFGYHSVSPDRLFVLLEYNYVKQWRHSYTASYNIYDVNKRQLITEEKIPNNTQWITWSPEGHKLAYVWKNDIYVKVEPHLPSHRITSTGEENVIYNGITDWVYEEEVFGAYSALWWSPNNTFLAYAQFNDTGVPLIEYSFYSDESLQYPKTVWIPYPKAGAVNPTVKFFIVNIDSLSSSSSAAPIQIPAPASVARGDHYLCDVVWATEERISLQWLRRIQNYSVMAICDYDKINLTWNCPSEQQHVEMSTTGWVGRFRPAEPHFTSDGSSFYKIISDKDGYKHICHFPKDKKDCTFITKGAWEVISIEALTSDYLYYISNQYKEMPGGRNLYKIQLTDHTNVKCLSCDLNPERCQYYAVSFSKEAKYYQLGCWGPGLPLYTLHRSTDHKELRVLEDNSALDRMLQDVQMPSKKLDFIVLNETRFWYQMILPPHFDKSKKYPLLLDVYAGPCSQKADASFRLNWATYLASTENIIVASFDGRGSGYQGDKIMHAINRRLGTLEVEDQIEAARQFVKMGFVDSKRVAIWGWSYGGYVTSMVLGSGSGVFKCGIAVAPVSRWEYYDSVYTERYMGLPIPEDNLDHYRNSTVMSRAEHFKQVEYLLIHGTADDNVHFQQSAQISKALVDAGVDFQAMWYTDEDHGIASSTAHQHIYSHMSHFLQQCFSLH

## CC1C(=O)N(CC(=O)N(CCOCCOCCOCCOCCOCCOCCOCCOCCN(CC(=O)O)C(=O)CCc2cc(Cl)c(Oc3ccsc3C(=O)N3CCN(C4CC4)c4ccccc43)cc2Cl)CC(=O)O)CCCN1C(=O)C[C@H](N)Cc1cc(F)c(F)cc1F (mixture of isomers)
[1]
  EC50: 48.5 nM
[2]
  EC50: 3.4 nM
Dipeptidyl peptidase 4
  IC50: 21.5 nM
[3]
  solubility: > 100 µM
[4]
  solubility: > 100 µM
[5]
  Papp A→B at 1.583 h, 20 µM: 0.01 ×10⁻⁶ cm/s
[6]
  Papp B→A at 1.583 h, 20 µM: 0.01 ×10⁻⁶ cm/s
[7]
  Cmax: 11700 ng/mL
[8]
  Cmax: 8.3 ng/mL
[9]
  Cmax: 820 ng/mL
Mus musculus [10]
  inhibition: inactive
Mus musculus [11]
  inhibition: inactive
Mus musculus [12]
  inhibition: Active
Mus musculus [13]
  inhibition: Active
Mus musculus [14]
  inhibition: Active
Mus musculus [15]
  inhibition: Active
Mus musculus [16]
  Activity: Active
Mus musculus [17]
  Activity: Active
Mus musculus [18]
  Activity: Active
Mus musculus [19]
  Activity: Active
Mus musculus [20]
  Activity: Active
Mus musculus [21]
  Activity: Active
Mus musculus [22]
  Activity: Active
Mus musculus [23]
  Activity: Active
Mus musculus [24]
  Activity: Active
Mus musculus [25]
  Activity: Active
Mus musculus [26]
  Activity: Active
Mus musculus [27]
  Activity: Active
Mus musculus [28]
  Activity: Active
